Assay results reported in patent US20250161238A1, “NMDAR Antagonists Prevent Ageing and Aging-Associated Conditions and Diseases Through Increasing 20S Proteasome Activity” (priority 2022, published 2025).
Entries after “also recorded” stand apart in the source; their conditions may differ.

How the values were obtained:
LC3 = assay: Autophagy: LC3 turnover and LC3 puncta in HepG2 stably expressing LC3; type: cell-based, human; details: HepG2 cell stably expressing LC3
Source text: One of the most experimentally straightforward method to monitor autophagic activity is the detection of microtubule-associated protein light chain 3 (LC3) protein processing. LC3 is the only known protein that is specifically associated with all types of autophagic membranes, including phagophore, autophagosome and autolysosome (a hybrid organelle formed by fusion of the autophagosome and lysosome). LC3 is specifically associated with the autophagosome. Upon the autophagy induction, the cytosolic LC3 (LC3-I) is conjugated to phosphatidylethanolamine (PE) to form lipidated LC3 (LC3-II). LC3-II binds to the expanding isolation membrane and remains bounded to complete autophagosome. Therefore, the amount of LC3-II correlates well with the number of autophagosomes, which is widely used as a marker for the autophagosome. Autophagy is a multi-step process which includes not just the formation of autophagosomes, but most importantly, the flux through the entire system, including the degradation of LC3-II upon fusion with lysosomes. Therefore, the expected result is that the LC3-II protein is degraded for complete autophagy. […] However, total amount of LC3 (LC3-I plus LC3II) was not changed.
The other basic protocol for the outophagy detection is monitoring the number of autophagosomes by visualizin LC3 puncta using flourescence microscopy. […]

[1] = tested on: human mesenchymal stem cells; assay: Differentiation markers of mesenchymal stem cells (western blot); type: cell-based; details: day 14
Source text: We investigated the differentiation of stem cells in the presence of memantine after cell passages using the simple differentiation method using the DMEM/F12, 10% FBS without coculture of mouse fibroblast (Yoo et all. 2020).
Cell were harvested at day 14 for western blot and the protein expression amounts of the differentiation markers cd44, cd73, and cd90 were investigated. […] Another indicator of the stem cell differentiation is the determination of the amounts of lipid droplet in the cell. Fourteen-day cell passage is caused to increase lipid in the cell. It was observed that memantine treatment has prevented the amount of lipid droplet (FIG. 36D).

mice = assay: Kondziela's inverted screen test in aged mice; type: in vivo; details: mice at 22 months
Source text: Kondziela's inverted screen test is one of tests which examine the muscle strength using all four limbs. Four limb-hanging test which is the Kondziella's inverted screen test represents a method to assess muscle strength using all four limbs grip and to determine the general condition during time. […] As a result, the test can provide important information about age-related neuromuscular decline.
The experimental protocols were approved by the Ethics Committee of Ankara University, Faculty of Medicine, Medical Sciences Experimental Research and Application Center (Date: Dec. 11, 2019 and Decision number: 2019-22-189). Adult (12-mounts-old) C57BL/6 mice (5 for each group) were used. The mice were housed at the Experimental Animal Research Laboratory of Ankara University Faculty of Medicine. Food and water were given without restriction. The ambient temperature was kept at 21±2° C., and locomotor activity tests were performed at this temperature. The animals were housed in a room with a 12-hour light/dark cycle. The procedures in the study were performed in accordance with the Ankara University Animal Care Committee according to international guidelines. Memantine (Sigma-Aldrich) was administered orally at 3 mg/Kg/per day with drinking water of one-year-old mice. Tests related to locomotor activities of the mice were recorded and available.
Inverted screen test described firstly Kondizela for muscle strength (Kondizela, 1964). The mouse was put on a center of the rectangular mesh screen (52 cm×32 cm) and the screen was rotated 180° over 2 seconds. The screen was held steadily 40-50 cm above a sawdust surface. Holding time were recorded for a maximum of 5 minutes. The inverted screen was scored previously by Deacon (Falling between 1-10 sec=1 Falling between 11-25 seconds=2 Falling between 26-60 seconds=3 Falling between 61-90 seconds=4 Falling after 90 seconds=5) (Deacon, 2013). According to previous studies, parameters such as Total mobility time % (Gleitz et al, 2017), the latency of falling time, and four limbs griping time (Roemers et al, 2019) were analyzed.

[2] = animals studies; cited from earlier work
[3] = human subjects; cited from earlier work
[4] = mice, 30 mg/kg dose; cited from earlier work
mice with GD symptoms = details: cited from earlier work

SMILES	total amount of LC3 (LC3-I plus LC3II) (LC3)	LC3-II amount (LC3; western blot)	increase in cd44 protein expression [1]	increase in cd73 protein expression [1]	increase in cd90 protein expression [1]	four fingers grip time (mice)	mobility time (mice)	time in the inverted frame (latency of falling, holding time) (mice)	induction of HSP, neuronal vacuolization and necrosis [2]	CSF concentrations, lower [3]	tolerability [4]	life span of mice with Gaucher disease symptoms (mice with GD symptoms; A/J, C3H/HeJ, DBA/2J, C57BL6/JolaHsd, CBE 25 mg/kg day)	life span with memantine dose increased by 10 fold (mice with GD symptoms; mouse, in vivo)
CNC1(c2ccccc2Cl)CCCCC1=O (stereo not shown) [ketamin, 2-(2-chlorophenyl)-2-(methylamino)-cyclohexanone]	not changed	increase											
CC12CC3CC(C)(C1)CC(N)(C3)C2 [memantine, 3,5-dimethyladamantan-1-amine]			statistically significantly less	statistically significantly less	statistically significantly less	more than two times	more than twice as much	twice as long	No induction	30-40%	well tolerated	dramatically extended; also recorded: extend the lifespan	increases the life span of mice even more
